Consider 34 molecules from patent US20260256807A1, “SUBSTITUTED PYRAZOLES AND IMIDAZOLES AS OREXIN RECEPTOR ANTAGONISTS COMPOSITION, METHODS FOR TREATING NEUROLOGICAL AND PSYCHOLOGICAL DISORDERS” (HAGER BIOSCIENCES, LLC, priority 2022, published 2026).

For test [1], the target named is T1, human orexin-1 receptor (Homo sapiens, UniProt O43613).
T1 construct: expressed in transfected cells; host or cells: CHO cells (G418 selection)
T1 sequence (O43613 1-425): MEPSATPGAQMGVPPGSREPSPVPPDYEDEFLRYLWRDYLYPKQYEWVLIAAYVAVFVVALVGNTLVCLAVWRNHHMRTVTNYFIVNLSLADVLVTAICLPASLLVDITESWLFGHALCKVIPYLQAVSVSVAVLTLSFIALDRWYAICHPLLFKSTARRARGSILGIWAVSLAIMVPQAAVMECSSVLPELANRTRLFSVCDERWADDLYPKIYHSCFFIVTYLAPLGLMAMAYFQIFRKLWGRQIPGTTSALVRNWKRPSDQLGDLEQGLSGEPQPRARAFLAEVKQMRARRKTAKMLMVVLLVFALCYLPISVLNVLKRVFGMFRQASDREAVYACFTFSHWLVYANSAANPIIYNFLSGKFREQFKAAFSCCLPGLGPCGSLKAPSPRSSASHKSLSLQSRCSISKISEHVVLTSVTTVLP
Kind of test: Intracellular calcium (FLIPR) antagonist assay, CHO cells expressing human orexin-1 receptor, 3 nM orexin-A. The test is classed as cell-based. As to conditions: 1 uM compound, orexin-A 3 nM; for inhibition at 1 µM: CHO, read-out: OXIR % Inh. @ 1 uM. How it is done: (§1) Antagonistic activities on both orexin receptors (i.e., to identify Orexin Receptor Antagonists) have been measured for each example compound using the in vitro assays (intracellular calcium measurements) as described herein. Other assays may also be used to identify Orexin Receptor Antagonists as would be understood by those of ordinary skill in the art. Chinese hamster ovary (CHO) cells expressing the human orexin-1 receptor and the human orexin-2 receptor, respectively, are grown in culture medium (Ham F-12 with L-Glutamine) containing 300 μg/mL G418, 100 U/mL penicillin, 100 μg/mL streptomycin and 10% heat inactivated fetal calf serum (FCS). The cells are seeded at 20′000 cells/well into 384-well black clear bottom sterile plates (Greiner). The seeded plates are incubated overnight at 37° C. in 5% CO2. Human orexin-A as an agonist is prepared as 1 mM stock solution in MeOH: water (1:1), diluted in HBSS containing 0.1% bovine serum albumin (BSA), NaHC03: 0.375 g/L and 20 mM HEPES for use in the assay at a final concentration of 3 nM.
(§2) Antagonists were prepared as 10 mM stock solution in DMSO, then diluted in 384-well plates using DMSO followed by a transfer of the dilutions into in HBSS containing 0.1% bovine serum albumin (BSA), NaHC03: 0.375 g/L and 20 mM HEPES. On the day of the assay, 50 μL of staining buffer (HBSS containing 1% FCS, 20 mM HEPES, NaHC03: 0.375 g/L, 5 mM probenecid (Sigma) and 3 μM of the fluorescent calcium indicator fluro-4 AM (1 mM stock solution in DMSO, containing 10% pluronic) is added to each well. The 384-well cell-plates are incubated for 50 min at 37° C. in 5% C02 followed by equilibration at RT for 30 min before measurement. Within the Fluorescent Imaging Plate Reader (FLIPR Tetra, Molecular Devices), potential Orexin Receptor Antagonists were added to the plate in a volume of 10 μl/well, incubated for 120 min and finally 10 μL/well of agonist is added. Fluorescence was measured for each well at 1 second intervals, and the height of each fluorescence peak compared to the height of the fluorescence peak induced by 3 nM orexin-A with vehicle in place of antagonist. The IC50 value (the concentration of compound needed to inhibit 50% of the agonistic response) was determined and normalized using the obtained IC50 value of an on-plate reference compound. Optimized conditions were achieved by adjustment of pipetting speed and cell splitting regime. The calculated IC50 values fluctuate depending on the daily cellular assay performance, as is known to those skilled in the art. In the case where IC50 values have been determined several times for the same compound, the geometric mean has been given.

Test [2] has as its target T2, human orexin-2 receptor (Homo sapiens, UniProt O43614).
T2 construct: expressed in transfected cells; host or cells: CHO cells (G418 selection)
T2 sequence (O43614 1-444): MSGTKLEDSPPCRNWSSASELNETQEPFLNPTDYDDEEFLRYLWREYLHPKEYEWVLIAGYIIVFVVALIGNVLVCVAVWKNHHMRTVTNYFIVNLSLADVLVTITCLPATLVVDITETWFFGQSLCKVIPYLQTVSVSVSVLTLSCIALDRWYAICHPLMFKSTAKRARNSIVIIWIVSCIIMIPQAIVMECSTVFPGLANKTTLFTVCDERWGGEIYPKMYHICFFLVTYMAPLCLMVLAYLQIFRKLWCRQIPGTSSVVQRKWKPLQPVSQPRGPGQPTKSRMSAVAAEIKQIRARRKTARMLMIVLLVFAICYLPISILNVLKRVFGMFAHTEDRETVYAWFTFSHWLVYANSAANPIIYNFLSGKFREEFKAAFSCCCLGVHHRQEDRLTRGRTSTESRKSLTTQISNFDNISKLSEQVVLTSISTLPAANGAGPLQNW
Description: Intracellular calcium (FLIPR) antagonist assay, CHO cells expressing human orexin-2 receptor, 3 nM orexin-A. As to conditions: CHO, 1 uM compound, orexin-A 3 nM, read-out: OX2R % Inh. @ 1uM. The test is classed as cell-based. As for the experimental part:
as §1, §2

Regarding `C[C@@H]1CCN(c2nc3cc(Cl)ccc3o2)CCN1C(=O)c1nc2ccccn2c1-c1ccccc1` [Example 56], the figures for the inhibition at 1 µM in test [1] and in test [2] were 97% and 27%, respectively.

As to `C[C@@H]1CCN(c2nc3cc(Cl)ccc3o2)CCN1C(=O)c1nn2c(c1-c1ccccc1)COCC2` [Example 57], the figures for the inhibition at 1 µM in test [1] and in test [2] were 98% and 28%, respectively.

For the molecule `C[C@@H]1CCN(c2ccc(C(F)(F)F)cn2)CCN1C(=O)c1nn2c(c1-c1ccccc1)COCC2` [Example 58], the inhibition at 1 µM amounted to 94% in test [1] and 30% in test [2].

Take `C[C@@H]1CCN(c2nc3cc(Cl)ccc3o2)CCN1C(=O)c1nn2c(c1-c1ccccc1)OCCC2` [Example 59]: the inhibition at 1 µM in test [1] was found to be 99%; in test [2], 97%.

With `C[C@@H]1CCN(c2ccc(C(F)(F)F)cn2)CCN1C(=O)c1nn2c(c1-c1ccccc1)OCCC2` [Example 60], the figures for the inhibition at 1 µM in test [1] and in test [2] were 97% and 81%, respectively.

On to `C[C@@H]1CCN(c2nc3cc(Cl)ccc3o2)CCN1C(=O)c1c(-c2ncccn2)nn2ccccc12` [Example 61], for which the inhibition at 1 µM in test [1] came out at 100%; in test [2] it was 64%.

Turning to `C[C@@H]1CCN(c2ccc(C(F)(F)F)cn2)CCN1C(=O)c1c(-c2ncccn2)nn2ccccc12` [Example 62], the inhibition at 1 µM in test [1] is 100%; in test [2] it was 44%.

As to `C[C@@H]1CCN(c2nc3cc(Cl)ccc3o2)CCN1C(=O)c1c(-c2ccccn2)nn2ccccc12` [Example 63], the values for the inhibition at 1 µM in test [1] and in test [2] were 100% and 96%, respectively.

As for `C[C@@H]1CCN(c2ccc(C(F)(F)F)cn2)CCN1C(=O)c1c(-c2ccccn2)nn2ccccc12` [Example 64], the inhibition at 1 µM is 100% in test [1] and 85% in test [2].

On to `C[C@@H]1CCN(c2nc3cc(Cl)ccc3o2)CCN1C(=O)c1c(-c2ccccc2)nn2cccnc12` [Example 65], for which the values for the inhibition at 1 µM in test [1] and in test [2] were 99% and 80%, respectively.

For `C[C@@H]1CCN(c2ccc(C(F)(F)F)cn2)CCN1C(=O)c1c(-c2ccccc2)nn2cccnc12` [Example 66], the inhibition at 1 µM in test [1] is 99%; in test [2], 83%.

Consider `C[C@@H]1CCN(c2nc3cc(Cl)ccc3o2)CCN1C(=O)c1nn2cccnc2c1-c1ccccc1` [Example 67], for which the results for the inhibition at 1 µM in test [1] and in test [2] were 99% and 80%, respectively.

For the molecule `C[C@@H]1CCN(c2ccc(C(F)(F)F)cn2)CCN1C(=O)c1nn2cccnc2c1-c1ccccc1` [Example 68], the inhibition at 1 µM in test [1] was determined as 100%; in test [2], 68%.

`Cc1cc(C)nc(N2CC[C@@H](C)N(C(=O)c3nc4ccccn4c3-c3ccccc3)CC2)n1` [Example 69]: the inhibition at 1 µM in test [1] was 23%; in test [2] it was 34%.

`Cc1cc(C)nc(N2CC[C@@H](C)N(C(=O)c3nn4c(c3-c3ccccc3)COCC4)CC2)n1` [Example 70]: the values for the inhibition at 1 µM in test [1] and in test [2] were 27% and 44%, respectively.

Take `Cc1cc(C)nc(N2CC[C@@H](C)N(C(=O)c3nn4ccccc4c3-c3ccccc3)CC2)n1` [Example 71]: the inhibition at 1 µM in test [1] was found to be 75%; in test [2], 96%.

In the case of `Cc1cc(C)nc(N2CC[C@@H](C)N(C(=O)c3c(-c4ccccc4)nn4c3COCC4)CC2)n1` [Example 72], the values for the inhibition at 1 µM in test [1] and in test [2] were 28% and 65%, respectively.

With `Cc1cc(C)nc(N2CC[C@@H](C)N(C(=O)c3c(-c4ccccc4)nc4ccccn34)CC2)n1` [Example 73], the inhibition at 1 µM in test [1] was found to be 65%; in test [2], 95%.

On to `Cc1cc(C)nc(N2CC[C@@H](C)N(C(=O)c3nn4cccnc4c3-c3ccccc3)CC2)n1` [Example 74], for which the inhibition at 1 µM in test [1] came to 74%; in test [2] it was 95%.

`Cc1cc(C)nc(N2CC[C@@H](C)N(C(=O)c3c(-c4ccccn4)nn4ccccc34)CC2)n1` [Example 75]: the values for the inhibition at 1 µM in test [1] and in test [2] were 79% and 100%, respectively.

As to `COc1ccc(N2CC[C@@H](C)N(C(=O)c3nn4c(c3-c3ccccc3)COCC4)CC2)nc1` [Example 76], the inhibition at 1 µM in test [1] worked out at 23%; in test [2], 11%.

For `COc1ccc(N2CC[C@@H](C)N(C(=O)c3nc4ccccn4c3-c3ccccc3)CC2)nc1` [Example 77], the inhibition at 1 µM in test [1] amounted to 38%; in test [2] it was 16%.

Take `COc1ccc(N2CC[C@@H](C)N(C(=O)c3nn4ccccc4c3-c3ccccc3)CC2)nc1` [Example 78]: the inhibition at 1 µM in test [1] worked out at 90%; in test [2] it was 52%.

Take `COc1ccc(N2CC[C@@H](C)N(C(=O)c3nn4c(c3-c3ccccc3)OCCC4)CC2)nc1` [Example 79]: the inhibition at 1 µM in test [1] was 45%; in test [2] it was 21%.

In the case of `COc1ccc(N2CC[C@@H](C)N(C(=O)c3nn4cccnc4c3-c3ccccc3)CC2)nc1` [Example 80], the inhibition at 1 µM in test [1] is 78%; in test [2] it was 39%.

Take `COc1ccc(N2CC[C@@H](C)N(C(=O)c3c(-c4ccccn4)nn4ccccc34)CC2)nc1` [Example 81]: the “OXIR % Inh. @ 1 uM” value in test [1] is recorded as 76%. Also, in test [2], the inhibition at 1 µM stood at 47%.

Turning to `C[C@@H]1CCN(c2cnc(C(F)(F)F)cn2)CCN1C(=O)c1nn2c(c1-c1ccccc1)COCC2` [Example 82], the inhibition at 1 µM in test [1] was found to be 39%; in test [2], 2%.

Turning to `C[C@@H]1CCN(c2cnc(C(F)(F)F)cn2)CCN1C(=O)c1nc2ccccn2c1-c1ccccc1` [Example 83], the values for the inhibition at 1 µM in test [1] and in test [2] were 69% and 27%, respectively.

Regarding `C[C@@H]1CCN(c2cnc(C(F)(F)F)cn2)CCN1C(=O)c1nn2c(c1-c1ccccc1)OCCC2` [Example 84], the inhibition at 1 µM in test [1] came out at 71%; in test [2], 27%.

For `C[C@@H]1CCN(c2cnc(C(F)(F)F)cn2)CCN1C(=O)c1nn2cccnc2c1-c1ccccc1` [Example 85], the inhibition at 1 µM stood at 93% in test [1] and 52% in test [2].

Turning to `C[C@@H]1CCN(c2cnc(C(F)(F)F)cn2)CCN1C(=O)c1nn2ccccc2c1-c1ccccc1` [Example 86], the inhibition at 1 µM in test [1] was 89%; in test [2] it was 63%.

For the molecule `C[C@@H]1CCN(c2cnc(C(F)(F)F)cn2)CCN1C(=O)c1c(-c2ccccn2)nn2ccccc12` [Example 87], the inhibition at 1 µM in test [1] came out at 83%; in test [2], 57%.

As for `C[C@@H]1CCN(c2cnc(C(F)(F)F)cn2)CCN1C(=O)c1c(-c2ncccn2)nn2ccccc12` [Example 88], the inhibition at 1 µM in test [1] amounted to 51%; in test [2], 29%.

Consider `C[C@@H]1CCN(c2cnc(C(F)(F)F)cn2)CCN1C(=O)c1c(-c2ccccc2)nn2c1COCC2` [Example 89], for which the inhibition at 1 µM in test [1] came out at 25%; in test [2], 10%.
